# Reference: BindingDB's records for doi:10.1016/j.bmcl.2015.05.099 (Mercer University, 2015)
# Tests used:
# Albumin [1] = target: T1, Albumin (Homo sapiens, UniProt P02768); experiment: Binding affinity to human serum albumin with excitation at 295 nm after 30 mins by fluorescence spectrophotometric analysis
# Albumin [2] = target: T1, Albumin; experiment: Binding affinity to human serum albumin with excitation at 285 nm after 30 mins by fluorescence spectrophotometric analysis
# T1 sequence (P02768 whole entry): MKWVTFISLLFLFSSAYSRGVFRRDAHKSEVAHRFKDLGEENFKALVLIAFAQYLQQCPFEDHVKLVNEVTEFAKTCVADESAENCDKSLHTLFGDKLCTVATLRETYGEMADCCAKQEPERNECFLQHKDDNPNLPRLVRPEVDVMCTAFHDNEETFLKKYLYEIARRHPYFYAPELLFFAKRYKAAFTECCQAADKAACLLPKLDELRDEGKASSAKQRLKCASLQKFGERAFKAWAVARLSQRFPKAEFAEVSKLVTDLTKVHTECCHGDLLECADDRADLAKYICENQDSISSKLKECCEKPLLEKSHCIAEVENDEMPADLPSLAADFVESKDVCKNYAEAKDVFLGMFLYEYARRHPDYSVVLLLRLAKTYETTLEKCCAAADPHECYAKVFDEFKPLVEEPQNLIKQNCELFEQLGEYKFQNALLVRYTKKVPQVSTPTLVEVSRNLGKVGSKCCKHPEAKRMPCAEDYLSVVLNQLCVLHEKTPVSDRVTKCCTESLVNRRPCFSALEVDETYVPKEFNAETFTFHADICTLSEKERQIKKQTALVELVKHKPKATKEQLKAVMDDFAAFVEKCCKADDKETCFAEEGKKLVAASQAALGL
SMILES,Kd (Albumin [1]),Kd (Albumin [2])
C=C(C)[C@@H]1CC[C@]2(C(=O)N[C@H](C)C(=O)[O-])CC[C@]3(C)[C@H](CC[C@@H]4[C@@]5(C)CC[C@H](O)C(C)(C)[C@@H]5CC[C@]43C)[C@@H]12.CCCCCCCCCCCC[N+](C)(C)Cc1ccccc1,19 µM,19 µM
C=C(C)[C@@H]1CC[C@]2(C(=O)N[C@H](C)C(=O)O)CC[C@]3(C)[C@H](CC[C@@H]4[C@@]5(C)CC[C@H](O)C(C)(C)[C@@H]5CC[C@]43C)[C@@H]12,37 µM,47 µM
C=C(C)[C@@H]1CC[C@]2(C(=O)[O-])CC[C@]3(C)[C@H](CC[C@@H]4[C@@]5(C)CC[C@H](O)C(C)(C)[C@@H]5CC[C@]43C)[C@@H]12.CCCCCCCCCCCC[N+](C)(C)Cc1ccccc1,1.9 µM,1.6 µM
